Where two headings read alike, the source gives them in different places.
How the values were obtained:
[1] = system: sodium:potassium ratio of the urine; assay: saluretic / DOCA-antagonizing effect, method of Kagawa (sodium:potassium ratio of the urine); assay type: in vivo, rats; details: for potassium-retentive diuretic effect: in words
Description: This means that these compounds promote the excretion of sodium ions to a far greater extent than that of potassium ions, thus the sodium:potassium ratio measured in the urine is favourably high. The saluretic effect was examined on rats according to the method of Kagawa (J. Pharm. Exp. Ther. 126, 123 /1959/). The sodium:potassium ratio of the urine was decreased experimentally by introducing deoxycorticosterone acetate (DOCA) into the animals, and the DOCA-antagonizing effects of the compounds were measured. The effects of the two new compounds examined in this test were essentially the same as that of Spironolactone, utilized as reference substance.

[2] = antiphlogistic effect (test not specified); details: in vivo
[3] = system: isolated rat uterine horn; assay: spontaneous activity of isolated rat uterine horn in vitro
[4] = system: longitudinal smooth muscle of guinea pig ileum; assay: spontaneous activity of the longitudinal smooth muscle of guinea pig ileum in vitro
[5] = system: gastric acid secretion; assay: gastric acid secretion; details: in vivo
Description: (§1) 1,3-Bis(2',6'-dimethylphenyl)-2-imino-4-methyl-imidazoline fumarate is far more advantageous than Indomethacine also with regard to its toxicological properties. […] Based on the above, the new compound according to the invention can be applied in the treatment of inflammatory disorders with a far greater degree of safety than Indomethacine.

[6] = in vivo
Description: as §1

[7] = LD50 determined on rats after oral administration; details: rat, in vivo
Description: as §1

[8] = system: prostaglandine synthetase enzyme; assay: inhibition of prostaglandine synthetase enzyme; assay type: biochemical
Description: as §1

[9] = system: cotton granuloma; assay: cotton granuloma test; details: in vivo
[10] = system: adjuvant arthritis; assay: adjuvant arthritis test; details: in vivo
[11] = system: carrageenin-induced plantar oedema; assay: carrageenin-induced plantar oedema test; assay type: in vivo, rats; details: Rattus norvegicus, read-out: ED50 value, carrageenin-induced plantar oedema test
[12] = system: serotonine receptors; assay: blocking of serotonine receptors
Description: as §1

[13] = system: histamine receptors; assay: blocking of histamine receptors
Description: as §1

[14] = system: urine excretion; assay: Lipschitz test, urine excretion of rats; assay type: in vivo; details: for Urine: 5 hr, control 5.82
Description: Some of the compounds according to the invention also exert favourable diuretic effects.

[15] = second experiment, 480 μg/animal p.o. with hormone substitution (DOCA) 12.5 μg/animal s.c.
[16] = first experiment, 480 μg/animal p.o. with hormone substitution (DOCA) 12.5 μg/animal s.c.

## COc1ccc(COC(=O)N=C2N(c3c(C)cccc3C)CC(C)N2c2c(C)cccc2C)cc1 (centres unmarked) [1,3-Bis(2',6'-dimethylphenyl)-2-(p-methoxy-benzyloxycarbonyl)-imino-4-methyl-imidazolidine]
[1]
  potassium-retentive diuretic effect: strong potassium-retentive diuretic effect

## CCOC(=O)N=C1N(c2c(C)cccc2C)CC(C)N1c1c(C)cccc1C (centres unmarked) [1,3-Bis(2',6'-dimethylphenyl)-2-carbethoxyimino-4-methyl-imidazolidine]
[1]; [15]
  Effects*: 1.19

## Cc1cccc(C)c1N1C(=N)N(c2c(C)cccc2C)[C@@H](C)[C@H]1C [1,3-Bis(2',6'-dimethylphenyl)-2-imino-4,5-cis-dimethylimidazolidine]
[1]
  potassium-retentive diuretic effect: also exert potassium-retentive diuretic effect, they are, however, less effective than the compounds listed in Table 2

## Cc1cccc(C)c1N1CC(CC(N)=O)N(c2c(C)cccc2C)C1=N (centres unmarked) [1,3-Bis(2',6'-dimethylphenyl)-2-imino-4-carboxamidomethyl-imidazolidine]
[2]
  antiphlogistic effects: significant antiphthlogistic effects

## Cc1cccc(C)c1N1CC(CCl)N(c2c(C)cccc2C)C1=N (centres unmarked) [1,3-Bis(2',6'-dimethylphenyl)-2-imino-4-chloromethyl-imidazolidine]
[2]
  antiphlogistic effects: significant antiphthlogistic effects

## Cc1cccc(C)c1N1CC(C)N(c2c(C)cccc2C)C1=N (centres unmarked) [1,3-Bis(2',6'-dimethylphenyl)-2-imino-4-methylimidazolidine]
[3]
  spontaneous activity of isolated rat uterine horn: increase the spontaneous activity
[1]
  potassium-retentive diuretic effect: also exert potassium-retentive diuretic effect, they are, however, less effective than the compounds listed in Table 2
[4]
  spontaneous activity of the longitudinal smooth muscle of guinea pig ileum: increase the spontaneous activity

## Cc1cccc(C)c1N1CC(C(=O)O)N(c2c(C)cccc2C)C1=N (centres unmarked) [1,3-Bis(2',6'-dimethylphenyl)-2-imino-imidazolidine-4-carboxylic acid]
[2]
  antiphlogistic effects: significant antiphthlogistic effects

## CC1CN(c2ccc(Cl)cc2)C(=N)N1c1ccc(Cl)cc1 (centres unmarked) [1,3-Bis(4'-chlorophenyl)-2-imino-4-methyl-imidazolidine]
[2]
  antiphlogistic effects: significant antiphthlogistic effects

## Cc1cccc(C)c1N1CC(C)N(c2c(C)cccc2C)C1=N.O=C(O)/C=C/C(=O)O (centres unmarked) [1,3-bis(2',6'-dimethylphenyl)-2-imino-4-methyl-imidazolidine fumarate]
[5]
  gastric acid secretion: decreases gastric acid secretion to a medium degree
[6]
  ulcerogeneous side effect: far lower than that of Indomethacine
[7]
  LD50: 150 mg/kg
[8]
  inhibition of prostaglandine synthetase enzyme: does not inhibit the function of prostaglandine synthetase enzyme
[9]
  activity in the cotton granuloma test: considerable activity
[10]
  activity in the adjuvant arthritis test: considerable activity
[11]; rats, oral administration
  ED50: 11 mg/kg
[12]
  connection of the antiphlogistic effect with blocking of serotonine receptors: not connected with the blocking of serotonine or histamine receptors
[13]
  connection of the antiphlogistic effect with blocking of histamine receptors: not connected with the blocking of serotonine or histamine receptors

## CCOC(=O)NC(=S)N=C1N(c2c(C)cccc2C)CC(C)N1c1c(C)cccc1C (centres unmarked) [1-(1',3'-Bis/2",6"-dimethylphenyl/-4'-methyl-imidazolidine-2'-ylidene)-3-carbethoxy-thiourea]
[14]; 25 mg/kg p.o.
  Urine: 11.16 ml/kgx5 hr.
[14]; rats, compared with urea
  diuretic effect / increase of urine excretion: increases the urine excretion of rats to the same degree as urea
[1]; [16]
  Effects*: 1.02

## Cc1cccc(N2CC(C)N(c3ccc(Cl)cc3)C2=N)c1C (centres unmarked) [1-(2',3'-Dimethylphenyl)-2-imino-3-(4'-chlorophenyl)-4-methyl-imidazolidine]
[1]
  potassium-retentive diuretic effect: also exert potassium-retentive diuretic effect, they are, however, less effective than the compounds listed in Table 2

## Cc1cccc(C)c1N1C(=N)N(c2ccc(Cl)cc2)CC1C (centres unmarked) [1-(4'-Chlorophenyl)-2-imino-3-(2',6'-dimethylphenyl)-4-methyl-imidazolidine]
[2]
  antiphlogistic effects: significant antiphthlogistic effects

## CC(=O)OCC(=O)[C@H]1CC[C@H]2[C@@H]3CCC4=CC(=O)CC[C@]4(C)[C@H]3CC[C@]12C [DOCA, deoxycorticosterone acetate, reference compound]
[1]; first experiment, DOCA alone, 12.5 μg/animal s.c.
  Effects*: 0.75
[1]; second experiment, DOCA alone, 12.5 μg/animal s.c.
  Effects*: 0.88

## COc1ccc2c(c1)c(CC(=O)O)c(C)n2C(=O)c1ccc(Cl)cc1 [Indomethacine, reference compound]
[7]
  LD50: 20 mg/kg
[11]; po
  ED50: 20 mg/kg

## COC(=O)C1CN(c2c(C)cccc2C)C(=N)N1c1c(C)cccc1C (centres unmarked) [Methyl 1,3-bis(2',6'-dimethylphenyl)-2-imino-imidazolidine-4-carboxylate]
[1]
  potassium-retentive diuretic effect: also exert potassium-retentive diuretic effect, they are, however, less effective than the compounds listed in Table 2

## CC(=O)S[C@@H]1CC2=CC(=O)CC[C@]2(C)[C@H]2CC[C@@]3(C)[C@@H](CC[C@@]34CCC(=O)O4)[C@H]12 [Spironolactone, reference compound]
[1]; [16]
  Effects*: 1.17
[1]; [15]
  Effects*: 1.19

## NC(N)=O [Urea, reference compound]
[14]; 960 mg/kg p.o.
  Urine: 11.54 ml/kgx5 hr.

Reference: patent publication US4369325A, “1,3-Diaryl-2-imino-imidazolidines and compounds” (EGYT Gyogyszervegyeszeti Gyar, priority 1978, dated 1983)
